# Experimental data taken from patent US20090221538A1, “METHODS OF TREATING MULTIPLE SCLEROSIS BY ADMINISTERING PULSE DOSE CALCITRIOL” (priority 2008, published 2009).
# “Also recorded” adds a separate entry of the source.
# Assays:
# EAE = details: mouse, in vivo; cited from earlier work
# MS = details: daily calcitriol treatments, cited from earlier work
# splenocytes = assay: Splenocyte staining and FACS analysis after pulse dose; type: in vivo, mouse
# Protocol: For flow cytometric analysis, splenocytes were dissociated into ice-cold Hank's balanced salt solution with HEPES buffer, and RBC were depleted. Duplicate samples (10^6 cells/sample) were stained (30-45 min on ice) with optimal amounts of the mAb conjugates in staining buffer (PBS pH 7.3 with 5% heat-inactivated FBS and 0.1% NaN3). Reference samples stained with single-color mAb served as controls to select fluorescence gates and flow cytometer compensation. The fluorescent mAb conjugates used for this analysis were FITC-labeled mAb to CD4 (clone L3T4) and APC-labeled mAb to CD11b (clone Macla) from Southern Biotechnology, and PE-labeled mAb to CD8 (clone alpha) and biotin-labeled mAb to CD45R (B220) from Invitrogen. PerCP-Cy5.5 was from BD/Pharmingan. Stained samples were analyzed on a FACScalibur™ using CELLQuest™ software (BD Biosciences, Franklin Lakes, N.J.).
# [1] = Spinal cord 1,25-(OH)2D3 extraction and radioimmunoassay; type: in vivo, mouse; details: 200 ng 1,25-(OH)2D3 pulse dose plus vitamin D3 supplementation; end of the study
# Protocol: The vitamin D3 and 1,25-(OH)2D3 were obtained from Sigma Chemical Co. The vitamin D3 was dissolved in safflower oil and stored in the dark at 5° C. The 1,25-(OH)2D3 was dissolved in 100% ethanol (1 mg/mL) and stored in the dark under nitrogen gas at −20° C. The concentration of 1,25-(OH)2D3 was determined by spectral analysis. Animals with stage 2.3±0.3 were randomized into treatment groups. The details of the treatments are given in the figure legends and table footnotes. The synthetic diet used in some experiments was formulated to contain all essential nutrients except vitamin D3 and was prepared exactly as we described (Spach and Hayes, 2005, J. Immunol. 175:4119-4126). For experiments using supplementary vitamin D3, the placebo group was fed the synthetic diet ad libidum without added vitamin D3, whereas the vitamin D3-supplemented group was fed the synthetic diet ad libidum with vitamin D3 added in an amount to provide 1 μg/d, calculated based on a daily measured consumption of 4.0 g dry weight of diet per mouse. Fresh synthetic diet was provided three times per week. At several times during the study, mice were weighed and blood samples were obtained from the tail vein. At the conclusion of the study, the mice were euthanized, a blood sample was obtained, perfusion was done, and the spinal cords and optic nerves were removed. […]
# [2] = splenocytes 14 days after a 175 ng pulse dose, no significant differences from normal control mice
structure (smiles),measurement,setting,value
"C=C1/C(=C\C=C2/CCC[C@]3(C)[C@@H]([C@H](C)CCCC(C)(C)O)CC[C@@H]23)C[C@@H](O)C[C@@H]1O [1,25-(OH)2D3, 1,25-dihydroxy vitamin D3]",EAE disease induction,EAE,strongly inhibited
same,EAE progression,EAE,prevented progression
same,established EAE disease,EAE,reversed established disease
same,MS progression,MS,completely inhibited
same,patients who withdrew from the trial with symptomatic hypercalcemia,MS,2 of the 15
same,MS relapse rate (average),MS; decreased from 1.0/yr,0.2 /yr
same,numbers of splenocytes recovered,"splenocytes; 14 days after a 175 ng pulse dose, no significant differences from normal control mice",43±9 million cells
same,depletion of splenic lymphocytes and monocytes / immunodeficient state,"splenocytes; B10.PL mice with EAE, 175 ng pulse dose, two weeks post treatment",did deplete; also recorded: did not result in an immunodeficient state
same,proportion of B220+ B lymphocytes,splenocytes; [2],63±3%
same,proportion of CD4+ T lymphocytes,splenocytes; [2],18±1%
same,proportion of CD8+ T lymphocytes,splenocytes; [2],11±1%
same,proportion of CD11b+ monocytes,splenocytes; [2],18±2%
same,"1,25-(OH)3D3 in the spinal cord",[1],18.8 ± 6.6 pmol/mL
